Measured values taken from patent US10221147B2, “Heterocyclic compounds with working memory enhancing activity” (Red Bull GmbH, priority 2014, dated 2019).

Experiments:
[1] = target: T1, serotonin transporter (SERT) (Homo sapiens, UniProt P31645); assay: Substrate uptake inhibition in HEK-SERT cells; type: cell-based; settings: human SERT expressed in HEK293, substrate uptake
T1 construct: expressed in transfected cells; host or cells: HEK293 (HEK-SERT)
Description: (§1) The human isoforms of DAT, SERT and NET were expressed in HEK293 (HEK-DAT, HEK-SERT and HEK-NET) cells. DAT inhibitors-mediated monoamine transporter effects on substrate uptake were analyzed according to procedure described by Sitte et al. In brief, cells were grown in poly-d-lysine coated 96-well plates, incubated with compounds diluted in Krebs-Ringer-HEPES buffer, substrates were subsequently added, cells were lysed with 1% SDS (sodium dodecyl sulphate) and released radioactivity was measure by a liquid scintillation counter (23).
(§2) EC50-values for the dopamine transporter (DAT), the norepinephrine transporter (NET) and the serotonin transporter (SERT) were obtained: […]

[2] = target: T2, dopamine transporter (DAT) (Homo sapiens, UniProt Q01959); assay: Substrate uptake inhibition in HEK-DAT cells; type: cell-based; settings: for inhibition of DAT and selectivity against SERT and NET: verbal summary of EC50 values
T2 construct: expressed in transfected cells; host or cells: HEK293 (HEK-DAT)
Description: as §1, §2

[3] = target: T3, norepinephrine transporter (NET) (Homo sapiens, UniProt P23975); assay: Substrate uptake inhibition in HEK-NET cells; type: cell-based; settings: human NET expressed in HEK293, substrate uptake
T3 construct: expressed in transfected cells; host or cells: HEK293 (HEK-NET)
Description: as §1, §2

Male Sprague Dawley rats = assay: 12 arm radial arm maze (RAM), working memory errors; type: in vivo, rat; settings: versus DMSO-injected counterparts
Text: One such animal model is the radial arm maze using rats and is given in detail in Timofeva O. et al., Brain Res. 1308 (2010) 147-152: Wenk G. et al.; The Journal of Neuroscience (2004) 8.5A.1-8.5A.12; Akoto M. et al.; The Journal of Neuroscience (2000)20 (189: 7116-7121: Levin E D et al.; Behavioral Brain Res. 208 (2010) 319-327. Li-Bo Z. et al.; Neuropharmacology 37, 1998) 323-330. Roegge, C S. et al.; Toxicological Sciences 57, 121-30 (2000).
Male Sprague Dawley rats were used for the studies aged between 12-14 weeks. Twelve rats per group were used for this study. All rats were obtained from Core Unit of Biomedical Research, Division of Laboratory Animal Science and Genetics, Medical University of Vienna and maintained in cages made of makrolon and filled with autoclaved woodchips and water in bottles was available ad libitum. The room was illuminated with artificial light at an intensity of about 200 lx in 2 m from 5 am to 7 pm. Radial arm maze (RAM) training was performed between 8:00 h and 13:00 h. […]
Before starting the training, rats were given two habituation sessions in which food was placed all over the maze and rats were allowed to explore the maze and consume the food for 5 minutes. […] An arm was baited only once and a repeated entry into a baited arm was counted as a working memory error, whereas any entry into an un-baited arm was recorded as a reference memory error. […]

T2 sequence (Q01959 whole entry): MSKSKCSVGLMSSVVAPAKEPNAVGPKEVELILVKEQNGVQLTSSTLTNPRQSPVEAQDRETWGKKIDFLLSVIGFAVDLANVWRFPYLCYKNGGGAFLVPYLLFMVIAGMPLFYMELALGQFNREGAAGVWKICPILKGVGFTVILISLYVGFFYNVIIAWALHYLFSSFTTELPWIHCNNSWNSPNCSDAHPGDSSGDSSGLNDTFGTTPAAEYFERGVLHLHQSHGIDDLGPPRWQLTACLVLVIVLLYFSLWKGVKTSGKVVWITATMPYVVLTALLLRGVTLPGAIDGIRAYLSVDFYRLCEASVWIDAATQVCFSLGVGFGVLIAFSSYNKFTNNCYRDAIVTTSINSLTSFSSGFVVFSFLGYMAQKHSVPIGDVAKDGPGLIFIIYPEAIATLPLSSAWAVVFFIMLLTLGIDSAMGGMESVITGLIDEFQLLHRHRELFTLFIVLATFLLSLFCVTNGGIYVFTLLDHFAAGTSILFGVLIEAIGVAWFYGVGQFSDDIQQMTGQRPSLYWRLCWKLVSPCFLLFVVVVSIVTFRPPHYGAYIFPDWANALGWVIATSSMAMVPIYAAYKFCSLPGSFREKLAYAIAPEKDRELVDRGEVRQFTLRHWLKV
T3 sequence (P23975 whole entry): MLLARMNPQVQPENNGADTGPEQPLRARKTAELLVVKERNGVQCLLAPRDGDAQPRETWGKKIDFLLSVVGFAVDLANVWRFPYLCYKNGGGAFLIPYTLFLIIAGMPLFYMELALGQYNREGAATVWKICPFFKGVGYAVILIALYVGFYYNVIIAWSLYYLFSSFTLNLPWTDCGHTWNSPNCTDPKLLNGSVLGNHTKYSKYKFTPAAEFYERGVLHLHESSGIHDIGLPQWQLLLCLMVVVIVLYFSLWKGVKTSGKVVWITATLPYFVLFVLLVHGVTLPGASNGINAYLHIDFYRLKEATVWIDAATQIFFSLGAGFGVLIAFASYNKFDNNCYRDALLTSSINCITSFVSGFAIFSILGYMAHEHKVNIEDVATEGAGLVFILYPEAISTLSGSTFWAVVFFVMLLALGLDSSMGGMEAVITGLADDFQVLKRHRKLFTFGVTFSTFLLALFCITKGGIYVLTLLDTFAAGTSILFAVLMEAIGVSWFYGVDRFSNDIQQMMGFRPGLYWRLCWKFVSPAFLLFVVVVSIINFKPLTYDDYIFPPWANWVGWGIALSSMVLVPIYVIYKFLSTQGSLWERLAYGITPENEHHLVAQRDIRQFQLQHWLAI
T1 sequence (P31645 whole entry): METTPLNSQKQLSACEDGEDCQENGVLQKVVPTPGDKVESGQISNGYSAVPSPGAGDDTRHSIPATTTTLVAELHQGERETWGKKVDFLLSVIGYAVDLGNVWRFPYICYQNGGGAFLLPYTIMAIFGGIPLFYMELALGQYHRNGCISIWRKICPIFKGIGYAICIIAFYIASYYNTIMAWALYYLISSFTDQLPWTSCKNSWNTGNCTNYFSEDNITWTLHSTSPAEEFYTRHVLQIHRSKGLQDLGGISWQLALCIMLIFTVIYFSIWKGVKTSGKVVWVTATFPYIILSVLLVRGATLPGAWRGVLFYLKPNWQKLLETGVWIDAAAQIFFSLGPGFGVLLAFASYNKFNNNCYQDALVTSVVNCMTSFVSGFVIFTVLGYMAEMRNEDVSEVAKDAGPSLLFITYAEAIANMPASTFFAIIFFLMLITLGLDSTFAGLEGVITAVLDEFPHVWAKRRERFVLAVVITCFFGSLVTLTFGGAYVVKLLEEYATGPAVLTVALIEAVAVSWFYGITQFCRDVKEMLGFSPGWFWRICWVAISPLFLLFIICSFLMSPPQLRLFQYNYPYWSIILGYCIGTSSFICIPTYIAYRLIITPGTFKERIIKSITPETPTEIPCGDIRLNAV

Row | Compound | melting point | EC50 [1] | EC50 [2] | inhibition of DAT and selectivity against SERT and NET [2] | EC50 [3] | performance in RAM training from day eight (working memory errors) (Male Sprague Dawley rats; day eight to ten, p<0.05) | performance in RAM training up to day seven (Male Sprague Dawley rats; up to day seven)
1 | Cc1csc(C[S+]([O-])C(c2ccccc2)c2ccccc2)n1 (stereo not drawn) | 104 to 107 °C | – | – | – | – | – | –
2 | [O-][S+](Cc1csc(C2CC2)n1)C(c1ccccc1)c1ccccc1 (stereo not drawn) [4-(diphenylmethanesulfinylmethyl)-2-cyclopropyl-1,3-thiazole] | – | 436 µM | 4.1 µM | excellent inhibition and selectivity against SERT and NET | 774 µM | – | –
3 | [O-][S+](Cc1cscn1)C(c1ccccc1)c1ccccc1 (stereo not drawn) [4-(diphenylmethanesulfinylmethyl)-1,3-thiazole] | – | 456 µM | 7.3 µM | excellent inhibition and selectivity against SERT and NET | 547 µM | – | –
4 | [O-][S+](Cc1nccs1)C(c1ccccc1)c1ccccc1 (stereo not drawn) [C1, 2-(diphenylmethanesulfinylmethyl}-1,3-thiazole] | 119 to 122 °C | – | – | – | – | performed better | comparable level
